Measured values published in patent US20250009844A1, “MATURATION OF MUCOSAL DEFENSE AND GUT/LUNG FUNCTION IN THE PRETERM INFANT” (Novozymes A/S, priority 2017, published 2025).
“Also recorded” adds a separate entry of the source. No end group written: not given here.

How the values were obtained:
PBMC cells = test: PBMC cell viability, Alamar Blue, 24 hours (Example 8); format: cell-based, human; details: 1, 10 and 40 μg/ml, 0.6 and 20.0 pg/ml LPS
Method: FIG. 39. Cell viability of PBMC cells following exposure for 24 hours to Alamar Blue and HD5, hBD-1, hBD-2, hBD-3 and hBD-4 at concentrations of 1, 10 and 40 μg/ml.
PBMC cell viability following exposure for 24 hours to Alamar Blue and HD5,hBD-1, hBD-2, hBD-3 and hBD-4 at concentrations of 1, 10 and 40 μg/ml at 0.6 and 20.0 pg/ml LPS respectively (FIG. 39).

neonatal rat model = details: cited from earlier work
[1] = system: gut epithelial cell lines; details: cited from earlier work
[2] = system: microbiota of the intestine; test: Prophylactic high fat diet murine model, 16S microbial analyses (Example 1); format: in vivo, mice
Description: The overall experimental design is shown in FIG. 1, top panel “Prophylactic study”. Mice: Mice were housed in trios, 4 cages per group. Feed intake was registered daily just before lights were turned off at 6 pm. Individual mice were subjected to experimental procedures in altered order both group and cage wise. Mice were kept at room temperature under a 12-hour light/dark cycle at SPF standard conditions. Diets: For dosing, the average weight was estimated to be 25 grams per mouse. Mice eat approximately 3 grams of feed per mouse per day.
Treatment regime: Mice were fed either a high fat diet (HFD) or a low fat (LF) control diet. The HFD contained 4 subgroups; a) hBD-2, b) HD5, c) hBD-2/HD5 and d) standard HFD without supplementation of defensins. Defensin concentration was 1,2 mg hBD-2 per kg mouse per day. HD5 was given in equimolar concentration to hBD-2.
(§1) Microbial analyses were carried out to study the microbiota of the intestine. Longitudinal 16S characterization was conducted on 4 paired samples from 60 mice, 240 samples in total. Each mouse was sampled prior to diet change, 1 week post diet change, 4 weeks post diet change and at termination, thus ensuring a thorough characterization of the faecal microbiota as a result of defensin treatment.

[3] = Therapeutic high fat diet model in diet-induced obese mice, weight and fat percentage (Example 2); format: in vivo
Description: (§2) The overall design of the study is shown in FIG. 1, lower panel, “Therapeutic study”. Mice and diets. The experiment elucidates the effect of hBD-2 and HD5 on the microbiota in diet-induced obese mice. A run-in period of 13 weeks where mice were fed a very HFD (60% energy from fat) preceded the intervention. Only mice meeting the criteria of a minimum of 12 gram weight gain (approximately 50% of initial bodyweight) during the run-in period were included in the final analyses. […] They were exposed to all experimental tests, but excluded from the analyses.
(§3) Treatment regimen. Before the intervention all mice were MR scanned. Cages of mice were allocated to experimental groups based on their fat mass. All subsequent measures were paired with data from the same mouse before the intervention. A LFD (low fat diet) reference group was running in parallel. As controls for the intervention 2 additional groups were included: a) very HFD and b) LFD. Experimental mice stayed on the very HFD during the intervention. The mice were on the experimental diet for 10 weeks. They were co-housed throughout the experiment, 4 mice per cage, 3 cages per group. All tests ran over 3 days, 1 cage per group per day.

[4] = system: microbiota of the intestine; test: Therapeutic high fat diet model in diet-induced obese mice, 16S microbial analyses (Example 2); format: in vivo
Description: as §2, §3, §1

BALB/c mice = test: Murine model of acute graft versus host disease, oral HD5 (Example 13); format: in vivo
Method: Treatment regime: 22 female BALB/c mice were irradiated with 4.5 Gy (2×498 sec) at intervals of at least 4 hours on day 0. Bone marrow was harvested: hind limbs harvested from 2 female WT C57BL/6 mice aseptically. Skeletal muscle was removed and epiphysis cut away. Lumen of bone flushed with PBS and cells pelleted and taken up. Harvest of T-cells: spleens from 2 female WT C57BL/6 mice were meshed through a […] cell strainer into a PBS filled dish. Cells were taken up in PBS and transferred into a 50 mL falcon tube and spun down. Cells were taken up in 1 mL PBS and 20 μL of CD4 microbead +20 μL CD8 microbeads per spleen added for incubation for 20 min at 4 degrees C. Cells were washed with PBS and applied to MACS separation in order to positively select CD4+ and CD8+ cells. Positively selected T-cells were counted and taken up. Transplantation: directly after the second irradiation, all WT BALB/c recipient mice were injected with 5×1.000.000 BM cells (50 μL) i.v. into the retroorbital venous plexus under isoflurane anesthesia. 22 BALB/c mice were treated with 1.2 mg of HD5/kg BW/day; 1.2 mg of hBD-2/kg BW/day or 100 μL of PBS per day vial oral gavage from day 0-10.
Survival was monitored for 60 days.

[5] = system: bacteria localization at the surface of the intestinal mucosa; test: Localization of bacteria by FISH with mucin immunostaining, lysis zone (Example 14); format: in vivo; details: orally administered; compared with mice on a low fat or western diet
Method: Immunostaining of mucins and localization of bacteria by FISH Mucus immunostaining was paired with fluorescent in situ hybridization (FISH), as previously described in order to analyze bacteria localization at the surface of the intestinal mucosa. Briefly, colonic tissues (proximal colon, 2nd cm from the cecum) without fecal material were placed in methanol-Carnoy's fixative solution (60% methanol, 30% chloroform, 10% glacial acetic acid) for a minimum of 3 hours at room temperature. Tissues were then washed in methanol 2×30 min, ethanol 2×15 min, ethanol/xylene (1:1), 15 min and xylene 2×15 min, followed by embedding in Paraffin with a vertical orientation. Five μm sections were performed and dewax by preheating at 60° C. for 10 min, followed by xylene 60° C. for 10 min, xylene for 10 min and 99.5% ethanol for 10 minutes. Hybridization step was performed at 50° C. overnight with EUB338 probe (5′-GCTGCCTCCCGTAGGAGT-3′, with a 5′ labeling using Alexa 647) diluted to a final concentration of 10 μg/mL in hybridization buffer (20 mM Tris-HCl, pH 7.4, 0.9 M NaCl, 0.1% SDS, 20% formamide). After washing 10 min in wash buffer (20 mM Tris-HCl, pH 7.4, 0.9 M NaCl) and 3×10 min in PBS, PAP pen (Sigma-Aldrich) was used to mark around the section and block solution (5% fetal bovine serum in PBS) was added for 30 min at 4° C. […]

SCID mice = test: Therapeutic, murine, 14 weeks, CD4+CD25+ T cell transfer induced colitis model (Example 4); format: in vivo
Description: Treatment regime: 70 female BALB/c mice housed in groups of five per cage were allocated to 7 different treatment groups. Colitis was induced in SCID mice by transplantation of CD4+CD25 Tcells from BALB/c mice. Lymphocytes isolated from spleen and lymph nodes from BALB/c mice were subjected to negative selection of CD4+Tcells. Afterwards, CD4+CD25+cells were positively isolated by binding to the beads from the CD4+Tcell suspensions and the CD4+CD25—were collected from the supernatant. The animals were treated with hBD-2, 0.1 mg/kg s.c. once daily 86consecutive days from day 7 (OD); 1 mg/kg s.c. OD or 3 mg/kg s.c. OD;with mouse anti TNFa 100 μg/mouse s.c. twice weekly (enbrel); with dexamethasone 0.3 mg/kg intraperitoneally OD (dex); with PBS s.c. as vehicle from day 7 and 86 consecutive days (vehicle) or sham treated (sham).
Treatment groups: • 1. 0.1 mg/kg hBD-2, once daily subcutaneously (n=11) • 2. 1 mg/kg hBD-2, once daily subcutaneously (n=11) • 3. 3 mg/kg hBD-2, once daily subcutaneously (n=11) • 4. PBS (hBD-2 vehicle), once daily subcutaneously (n=11) • 5. 0.3 mg/kg Dexamethasone, once daily intraperitoneally (n=11) • 6. 100 μg/mouse soluble human 75-kilodalton TNF receptor linked to Fc portion of IgG1 (Enbrel), twice a week subcutaneously (n=11) • 7. Sham treated group (n=6)
Clinical assessment was based on body weight loss, stool consistency and presence of blood per rectum. The animals were sacrificed on day 95 and colon removed for assessment of weight and myeloperoxidase activity.

[6] = same three dosing regimens, sacrifice day 95

Substance: human beta defensin 3 (GIINTLQKYYCRVRGGRCAVLSCLPKEEQIGKCSTRGRKCCRRK; ends and bridges not checked; cysteine pairing not given here; listed as Homo sapiens) [hBD-3]
- Toxicity (PBMC cell viability) (PBMC cells): profoundly increasing toxicity; also recorded: toxic
- Incidence of NEC (neonatal rat model): decrease the incidence of NEC
- Toxicity [1]: not to be toxic

Substance: human intestinal alpha defensin 5 (ATCYCRTGRCATRESLSGVCEISGRLYRLCCR; listed as Homo sapiens) [HD5]
- Microbial presence and abundance (unifrac, genus analysis) ([2]; prophylactic oral defensin in HFD, 1,2 mg hBD-2 per kg per day, HD5 equimolar, mix 50%+50%): affected primarily the microbial abundance
- Abundance of Allobaculum ([2]; small intestine, prophylaxis, p<0.02): statistically significant increase of abundance of Allobaculum
- Fat percentage ([3]; 4 weeks after dietary change, HFD plus HD5 vs HFD control, p=0.009): significantly lower fat percentage
- Fat percentage, course ([3]; HFD plus HD5 group after dietary intervention): tendency of decreasing fat percentage
- Weight gain ([3]; after dietary intervention, HFD plus HD5 vs HFD control, p<0.05): gained significantly less weight than the HFD control
- Abundance of Alloprevotella ([4]; colon, therapeutic intervention, HD5 p<0.02): increased the abundance of Alloprevotella statistically significantly
- Relative abundance of Bifidobacteriaceae ([4]; small intestine, hBD-2 p<0.0001): trend towards HD5 increasing the abundance of Bifidobacteriaceae
- Toxicity (PBMC cell viability) (PBMC cells): not toxic irrespectively of concentration; also recorded: not to be toxic
- Animals that had died by day 60 (BALB/c mice; 1.2 mg/kg BW/day oral gavage day 0-10, HD5 group of 8, PBS six out of eight died): 2
- Mortality (BALB/c mice; 22 mice, oral treatment for 10 days): significant reduction of mortality
- Distance from the intestinal lining to bacterial population (lysis zone) [5]: profound effect on the distance

Substance: human beta defensin 1 (DHYNCVSSGGQCLYSACPIFTKIQGTCYRGKAKCCK; ends and bridges not checked; cysteine pairing not given here; listed as Homo sapiens) [hBD-1]
- Toxicity (PBMC cell viability) (PBMC cells): not toxic irrespectively of concentration; also recorded: not to be toxic

Substance: Enbrel [reference compound]
- Clinical score (body weight loss, stool consistency, blood per rectum) (SCID mice; hBD-2 1 mg/kg s.c. OD, Dexamethasone 0.3 mg/kg i.p. OD, Enbrel 100 μg/mouse s.c. twice weekly, from day 7): statistically significant and similar effect on clinical score
- Colon weight (SCID mice; [6]): statistically significant and similar effect on colon weight
- Myeloperoxidase activity in intestinal tissue (SCID mice; [6]): statistically significant and similar effect

Substance: human beta defensin 4 (ELDRICGYGTARCRKKCRSQEYRIGRCPNTYACCLRK; ends and bridges not checked; cysteine pairing not given here; listed as Homo sapiens) [hBD-4]
- Toxicity (PBMC cell viability) (PBMC cells): moderately increasing toxicity; also recorded: moderately toxic
